Reference: US9115143B2, “Substituted indole derivatives as gamma secretase modulators” (Janssen Pharmaceuticals, Inc., priority 2011, dated 2015)

Experiments:
Aβ42 = assay: In vivo efficacy B-1a: brain soluble Aβ42 in non-transgenic rodents, ELISA; set-up: species or system mouse; conditions: dose 30 mg/kg oral dosing, brain soluble fraction, untreated animals (Ctrl) set at 100; for response vs control in vivo at 30 mg/kg: Mus musculus, po, read-out: Aβ42 (% vs Ctrl)_Mean
Source text: (§1) To determine whether acute administration of an Aβ42 lowering agent would reduce Aβ42 levels in vivo, non-transgenic rodents, e.g. mice or rats were used. Animals treated with the Aβ42 lowering agent were examined and compared to those untreated or treated with vehicle and brain levels of soluble Aβ42 and total Aβ were quantitated by standard techniques, for example, using ELISA. Treatment periods varied from hours (h) to days and were adjusted based on the results of the Aβ42 lowering once a time course of onset of effect could be established.
(§2) A typical protocol for measuring Aβ42 lowering in vivo is shown but it is only one of many variations that could be used to optimize the levels of detectable Aβ. For example, Aβ42 lowering compounds were formulated in 20% of Captisol® (a sulfobutyl ether of β-cyclodextrin) in water or 20% hydroxypropyl β cyclodextrin. The Aβ42 lowering agents were administered as a single oral dose or by any acceptable route of administration to overnight fasted animals. After 4 h, the animals were sacrificed and Aβ42 levels were analysed.
(§3) Blood was collected by decapitation and exsanguinations in EDTA-treated collection tubes. Blood was centrifuged at 1900 g for 10 minutes (min) at 4° C. and the plasma recovered and flash frozen for later analysis. The brain was removed from the cranium and hindbrain. The cerebellum was removed and the left and right hemisphere were separated. The left hemisphere was stored at −18° C. for quantitative analysis of test compound levels. The right hemisphere was rinsed with phosphate-buffered saline (PBS) buffer and immediately frozen on dry ice and stored at −80° C. until homogenization for biochemical assays.
(§4) Mouse brains from non-transgenic animals were resuspended in 8 volumes of 0.4% DEA (diethylamine)/50 mM NaCl containing protease inhibitors (Roche-11873580001 or 04693159001) per gram of tissue, e.g. for 0.158 g brain, add 1.264 mL of 0.4% DEA. All samples were homogenized in the FastPrep-24 system (MP Biomedicals) using lysing matrix D (MPBio #6913-100) at 6 m/s for 20 seconds. Homogenates were centrifuged at 20800×g for 5 min and supernatants collected. Supernatants were centrifuged at 221.300×g for 50 min. The resulting high speed supernatants were then transferred to fresh eppendorf tubes. Nine parts of supernatant were neutralized with 1 part 0.5 M Tris-HCl pH 6.8 and used to quantify Aβtotal and Aβ42.
To quantify the amount of Aβtotal and Aβ42 in the soluble fraction of the brain homogenates, Enzyme-Linked-Immunosorbent-Assays were used. Briefly, the standards (a dilution of synthetic Aβ1-40 and Aβ1-42, Bachem) were prepared in 1.5 mL Eppendorf tube in Ultraculture, with final concentrations ranging from 10000 to 0.3 pg/mL. The samples and standards were co-incubated with HRPO-labelled N-terminal antibody JRF/rAμ/2 for Aβ42 detection and with the biotinylated mid-domain antibody 4G8 for Aβtotal detection. 50 μl of conjugate/sample or conjugate/standards mixtures were then added to the antibody-coated plate (the capture antibodies selectively recognize the C-terminal end of Aβ42, antibody JRF/cAβ42/26, for Aβ42 detection and the N-terminus of AB, antibody JRF/rAβ/2, for Aβtotal detection). The plate was allowed to incubate overnight at 4° C. in order to allow formation of the antibody-amyloid complex. Following this incubation and subsequent wash steps the ELISA for Aβ42 quantification was finished by addition of Quanta Blu fluorogenic peroxidase substrate according to the manufacturer's instructions (Pierce Corp., Rockford, Ill.). A reading was performed after 10 to 15 min (excitation 320 nm/emission 420 nm).
In this model a Aβ42 lowering compared to untreated animals would be advantageous, in particular a Aβ42 lowering with at least 10%, more in particular a Aβ42 lowering with at least 20%.
The results are shown in Table 4 (dose 30 mg/kg oral dosing) (value for untreated animals as control (Ctrl) was set at 100): […]

Aβ38 = assay: In vivo efficacy B-2a: brain soluble Aβ38 in non-transgenic rodents, ELISA; set-up: species or system mouse; conditions: dose 30 mg/kg oral dosing, brain soluble fraction, untreated animals (Ctrl) set at 100; for response vs control in vivo at 30 mg/kg: Mus musculus, po, read-out: Aβ38 (% vs Ctrl)_Mean
Source text: Aβ38 increasing agents can be administered in any standard form using any standard method. For example, but not limited to, Aβ38 increasing agents can be in the form of liquid, tablets or capsules that are taken orally or by injection.
as §1, with “Aβ38 increasing agents” for “Aβ42 lowering agent”, “increase Aβ38” for “reduce Aβ42”, “Aβ38” for “Aβ42”, “Aβ38 increase” for “Aβ42 lowering”
as §2, with “measuring Aβ38 increase” for “measuring Aβ42 lowering”, “example, Aβ38 increasing agents” for “example, Aβ42 lowering compounds”, “The Aβ38 increasing” for “The Aβ42 lowering”, “and Aβ38” for “and Aβ42”
as §3
as §4, with “Aβ38.” for “Aβ42.”
To quantify the amount of Aβtotal and Aβ38 in the soluble fraction of the brain homogenates, Enzyme-Linked-Immunosorbent-Assays were used. Briefly, the standards (a dilution of synthetic Aβ1-40 and Aβ1-38, ANASPEC) were prepared in 1.5 mL Eppendorf tube in Ultraculture, with final concentrations ranging from 10000 to 0.3 pg/mL. The samples and standards were co-incubated with HRPO-labelled N-terminal antibody for Aβ38 detection and with the biotinylated mid-domain antibody 4G8 for Aβtotal detection. 50 μl of conjugate/sample or conjugate/standards mixtures were then added to the antibody-coated plate (the capture antibodies selectively recognize the C-terminal end of Aβ38, antibody J&JPRD/Aβ38/5, for Aβ38 detection and the N-terminus of Aβ, antibody JRF/rAβ/2, for Aβtotal detection). The plate was allowed to incubate overnight at 4° C. in order to allow formation of the antibody-amyloid complex. Following this incubation and subsequent wash steps the ELISA for Aβ38 quantification was finished by addition of Quanta Blu fluorogenic peroxidase substrate according to the manufacturer's instructions (Pierce Corp., Rockford, Ill.). A reading was performed after 10 to 15 min (excitation 320 nm/emission 420 nm). […]

Compound | response vs control in vivo at 30 mg/kg (Aβ42) [%] | response vs control in vivo at 30 mg/kg (Aβ38) [%] | other results
N#Cc1ccc2[nH]c(-c3nc4n(n3)CCCC4c3ccccc3C(F)(F)F)cc2c1 (stereo not shown) [Compound 18, 2-[5,6,7,8-tetrahydro-8-[2-(trifluoromethyl)phenyl][1,2,4]triazolo[1,5-a]pyridin-2-yl]-1H-indole-5-carbonitrile] | 88 | 87 | 
N#Cc1ccc2[nH]c(-c3nc4n(n3)CCCC4c3cccc(OC(F)(F)F)c3)cc2c1 (stereo not shown) [Compound 20, 2-[5,6,7,8-tetrahydro-8-[3-(trifluoromethoxy)phenyl][1,2,4]triazolo[1,5-a]pyridin-2-yl]-1H-indole-5-carbonitrile] | 93 | 122 | 
Cc1cn(-c2cc3cc(-c4nc5n(n4)CCCC5c4ccccc4C)[nH]c3cn2)cn1 (stereo not shown) [Compound 30, 5,6,7,8-tetrahydro-2-[5-(4-methyl-1H-imidazol-1-yl)-1H-pyrrolo[2,3-c]pyridin-2-yl]-8-(2-methylphenyl)-[1,2,4]triazolo[1,5-a]pyridine] | 91 | 118 | 
Cc1cn(-c2ccc3[nH]c(-c4nc5n(n4)CCOC5c4ccccc4C(F)(F)F)cc3c2)cn1 (stereo not shown) [Compound 37, 5,6-dihydro-2-[5-(4-methyl-1H-imidazol-1-yl)-1H-indol-2-yl]-8-[2-(trifluoromethyl)phenyl]-8H-[1,2,4]triazolo[5,1-c][1,4]oxazine] | 64 | 118 | 
Cc1cn(-c2ccc3[nH]c(-c4nc5n(n4)CCOC5c4ccc(F)cc4C)cc3c2)cn1 (stereo not shown) [Compound 39, 8-(4-fluoro-2-methylphenyl)-5,6-dihydro-2-[5-(4-methyl-1H-imidazol-1-yl)-1H-indo-2-yl]-8H-[1,2,4]triazolo[5,1-c][1,4]oxazine] |  |  | Aβ42 (% vs Ctrl)_Mean (Aβ42): 74 % vs Ctrl; Aβ38 (% vs Ctrl)_Mean (Aβ38): 132 % vs Ctrl
COc1c(C#N)ccc2[nH]c(-c3cn4c(n3)C(c3ccc(F)cc3C)OCC4)cc12 (stereo not shown) [Compound 46, 2-[8-(4-fluoro-2-methylphenyl)-5,6-dihydro-8H-imidazo[2,1-c][1,4]oxazin-2-yl]-4-methoxy-1H-indole-5-carbonitrile] | 52 |  | Aβ38 (% vs Ctrl)_Mean (Aβ38; 30 mg/kg): 109 % vs Ctrl
COc1c(C#N)ccc2[nH]c(-c3cn4c(n3)C(c3ccc(F)cc3C)OCC4)cc12 (stereo not shown) [Compound 47, 2-[8-(4-fluoro-2-methylphenyl)-5,6-dihydro-8H-imidazo[2,1-c][1,4]oxazin-2-yl]-4-methoxy-1H-indole-5-carbonitrile] |  |  | Aβ42 (% vs Ctrl)_Mean (Aβ42; 30 mg/kg): 45 % vs Ctrl; Aβ38 (% vs Ctrl)_Mean (Aβ38; 30 mg/kg): 87 % vs Ctrl
COc1c(C#N)ccc2[nH]c(-c3nc4n(n3)CCOC4c3ccccc3C(F)(F)F)cc12 (stereo not shown) [Compound 55, 2-[5,6-dihydro-8-[2-(trifluoromethyl)phenyl]-8H-[1,2,4]triazolo[5,1-c][1,4]oxazin-2-yl]-4-methoxy-1H-indole-5-carbonitrile] | 55 | 130 | 
COc1c(C#N)ccc2[nH]c(-c3nc4n(n3)CCCC4c3ccc(F)cc3C)cc12 (stereo not shown) [Compound 59, 2-[8-(4-fluoro-2-methylphenyl)-5,6,7,8-tetrahydro[1,2,4]triazolo[1,5-a]pyridin-2-yl]-4-methoxy-1H-indole-5-carbonitrile] | 55 | 91 | 
Cc1cc(F)ccc1C1CCCn2cc(-c3cc4cc(C#N)ccc4[nH]3)nc21 (stereo not shown) [Compound 63, 2-[8-(4-fluoro-2-methylphenyl)-5,6,7,8-tetrahydroimidazo[1,2-a]pyridin-2-yl]-1H-indole-5-carbonitrile] |  |  | Aβ42 (% vs Ctrl)_Mean (Aβ42; 30 mg/kg): 121 % vs Ctrl; Aβ38 (% vs Ctrl)_Mean (Aβ38; 30 mg/kg): 98 % vs Ctrl
Cc1cc(F)ccc1C1CCCn2cc(-c3cc4cc(C#N)ccc4[nH]3)nc21 (stereo not shown) [Compound 64, 2-[8-(4-fluoro-2-methylphenyl)-5,6,7,8-tetrahydroimidazo[1,2-a]pyridin-2-yl]-1H-indole-5-carbonitrile] |  |  | Aβ42 (% vs Ctrl)_Mean (Aβ42; 30 mg/kg): 48 % vs Ctrl; Aβ38 (% vs Ctrl)_Mean (Aβ38; 30 mg/kg): 122 % vs Ctrl
Cc1cn(-c2ccc3[nH]c(-c4nc5n(n4)CCCC5c4ccc(F)cc4C)cc3n2)cn1 (stereo not shown) [Compound 65, 8-(4-fluoro-2-methylphenyl)-5,6,7,8-tetrahydro-2-[5-(4-methyl-1H-imidazol-1-yl)-1H-pyrrolo[3,2-b]pyridin-2-yl]-[1,2,4]triazolo[1,5-a]pyridine] | 82 | 101 | 
Cc1cc(F)ccc1C1CCCn2nc(-c3cc4nc(-c5cnn(C)c5)ccc4[nH]3)nc21 (stereo not shown) [Compound 69, 8-(4-fluoro-2-methylphenyl)-5,6,7,8-tetrahydro-2-[5-(1-methyl-1H-pyrazol-4-yl)-1H-pyrrolo[3,2-b]pyridin-2-yl]-[1,2,4]triazolo[1,5-a]pyridine] | 83 | 106 | 
Cc1cn(-c2cc3cc(-c4nc5n(n4)CCCC5c4ccc(F)cc4C)[nH]c3cn2)cn1 (stereo not shown) [Compound 71, 8-(4-fluoro-2-methylphenyl)-5,6,7,8-tetrahydro-2-[5-(4-methyl-1H-imidazol-1-yl)-1H-pyrrolo[2,3-c]pyridin-2-yl]-[1,2,4]triazolo[1,5-a]pyridine] | 108 | 115 | 
